Results as given in patent publication US20090306165A1, “DIPEPTIDE COMPOUNDS CONTAINING D-HISTIDINE” (priority 2006, published 2009).

Assays:
[1] = pharmacokinetic studies on laboratory animals monitoring plasma carnosine content by liquid chromatography-ESI triple quadrupole mass spectrometry; format: in vivo
[2] = distribution in the rat after oral administration; format: in vivo
[3] = detoxification of alpha, beta-unsaturated carbonyl compounds; details: compared with L-carnosine

gastrointestinal absorption [1]: poor gastrointestinal absorption | distribution in the lung [2]: distributed in the lung
Compound: NCCC(=O)N[C@H](Cc1c[nH]cn1)C(=O)O [D-carnosine, β-alanyl-D-histidine]
detoxification of the alpha, beta-unsaturated carbonyl compounds [3]: performs the same detoxification
